Reference: ChEMBL document CHEMBL4257522, “Synthesis and preliminary anti-inflammatory and anti-bacterial evaluation of some diflunisal aza-analogs” (Medchemcomm, 2018)
The source made the active and inactive calls. The calls are words filed in the database; no cut-off is given here.

Key:
Enterococcus faecium [1] = assay: Potentiation of methicillin-induced antibacterial activity against Enterococcus faecium ATCC 700221 assessed as minimum modulatory concentration up to 32 uM measured after 16 hrs in presence of MIC/4 methicillin; format: functional; conditions: ATCC 700221, 16 h, read-out: MEC
Escherichia coli [2] = assay: Potentiation of methicillin-induced antibacterial activity against Escherichia coli ATCC 43894 assessed as minimum modulatory concentration up to 32 uM measured after 16 hrs in presence of MIC/4 methicillin; format: functional; conditions: ATCC 43894, 16 h, read-out: MEC
Pseudomonas aeruginosa [3] = assay: Potentiation of tetracycline-induced antibacterial activity against Pseudomonas aeruginosa ATCC BAA-2108 assessed as minimum modulatory concentration up to 32 uM measured after 16 hrs in presence of MIC/4 tetracycline; format: functional; conditions: ATCC BAA-2108, 16 h, read-out: MEC
Klebsiella pneumoniae [4] = assay: Potentiation of erythromycin-induced antibacterial activity against Klebsiella pneumoniae ATCC 13883 assessed as minimum modulatory concentration up to 32 uM measured after 16 hrs in presence of MIC/4 erythromycin; format: functional; conditions: ATCC 13883, 16 h, read-out: MEC
Escherichia coli [5] = assay: Toxicity in Escherichia coli ATCC 43894 up to 32 uM measured after 16 hrs; format: organism-based
Pseudomonas aeruginosa [6] = assay: Toxicity in Pseudomonas aeruginosa ATCC BAA-2108 up to 32 uM measured after 16 hrs; format: organism-based; conditions: in vitro
Pseudomonas aeruginosa [7] = assay: Potentiation of ciprofloxacin-induced antibacterial activity against Pseudomonas aeruginosa ATCC BAA-2108 assessed as minimum modulatory concentration up to 32 uM measured after 16 hrs in presence of MIC/4 ciprofloxacin; format: functional; conditions: ATCC BAA-2108, 16 h, read-out: MEC
Macrophage cell line [8] = assay: Cytotoxicity against human PBMC-differentiated macrophages treated for 24 hrs followed by compound washout and measured after 48 hrs by MTT assay; format: cell-based
Staphylococcus aureus [9] = assay: Potentiation of geneticin-induced antibacterial activity against Staphylococcus aureus ATCC 33592 assessed as minimum modulatory concentration up to 32 uM measured after 16 hrs in presence of MIC/4 geneticin; format: functional; conditions: ATCC 33592, 16 h, read-out: MEC
Macrophage cell line [10] = assay: Induction of TNFalpha production in human PBMC-differentiated macrophages after 24 hrs by ELISA; format: cell-based
Macrophage cell line [11] = assay: Antiinflammatory activity in human PBMC-differentiated macrophages assessed as inhibition of LPS-induced prostaglandin production at 0.01 to 10 uM measured after 24 hrs by ELISA; format: functional, cell-based
Staphylococcus aureus [12] = assay: Potentiation of ciprofloxacin-induced antibacterial activity against Staphylococcus aureus ATCC 33592 assessed as minimum modulatory concentration up to 32 uM measured after 16 hrs in presence of MIC/4 ciprofloxacin; format: functional; conditions: ATCC 33592, 16 h, read-out: MEC
Streptococcus pyogenes [13] = assay: Potentiation of ciprofloxacin-induced antibacterial activity against Streptococcus pyogenes ATCC 14289 assessed as minimum modulatory concentration up to 32 uM measured after 16 hrs in presence of MIC/4 ciprofloxacin; format: functional; conditions: ATCC 14289, 16 h, read-out: MEC
Klebsiella pneumoniae [14] = assay: Toxicity in Klebsiella pneumoniae ATCC 13883 up to 32 uM measured after 16 hrs; format: organism-based
Streptococcus pyogenes [15] = assay: Toxicity in Streptococcus pyogenes ATCC 14289 up to 32 uM measured after 16 hrs; format: organism-based
Klebsiella pneumoniae [16] = assay: Potentiation of methicillin-induced antibacterial activity against Klebsiella pneumoniae ATCC 13883 assessed as minimum modulatory concentration up to 32 uM measured after 16 hrs in presence of MIC/4 methicillin; format: functional; conditions: ATCC 13883, 16 h, read-out: MEC
Enterococcus faecium [17] = assay: Potentiation of erythromycin-induced antibacterial activity against Enterococcus faecium ATCC 700221 assessed as minimum modulatory concentration up to 32 uM measured after 16 hrs in presence of MIC/4 erythromycin; format: functional; conditions: ATCC 700221, 16 h, read-out: MEC
Pseudomonas aeruginosa [18] = assay: Potentiation of geneticin-induced antibacterial activity against Pseudomonas aeruginosa ATCC BAA-2108 assessed as minimum modulatory concentration up to 32 uM measured after 16 hrs in presence of MIC/4 geneticin; format: functional; conditions: ATCC BAA-2108, 16 h, read-out: MEC
Pseudomonas aeruginosa [19] = assay: Potentiation of erythromycin-induced antibacterial activity against Pseudomonas aeruginosa ATCC BAA-2108 assessed as minimum modulatory concentration up to 32 uM measured after 16 hrs in presence of MIC/4 erythromycin; format: functional; conditions: ATCC BAA-2108, 16 h, read-out: MEC
Staphylococcus aureus [20] = assay: Potentiation of tetracycline-induced antibacterial activity against Staphylococcus aureus ATCC 33592 assessed as minimum modulatory concentration up to 32 uM measured after 16 hrs in presence of MIC/4 tetracycline; format: functional; conditions: ATCC 33592, 16 h, read-out: MEC
Staphylococcus aureus [21] = assay: Potentiation of methicillin-induced antibacterial activity against Staphylococcus aureus ATCC 33592 assessed as minimum modulatory concentration up to 32 uM measured after 16 hrs in presence of MIC/4 methicillin; format: functional; conditions: ATCC 33592, 16 h, read-out: MEC
Macrophage cell line [22] = assay: Antiinflammatory activity in human PBMC-differentiated macrophages assessed as inhibition of LPS-induced IL-8 production at 0.01 to 10 uM measured after 24 hrs by ELISA; format: functional, cell-based
Klebsiella pneumoniae [23] = assay: Potentiation of geneticin-induced antibacterial activity against Klebsiella pneumoniae ATCC 13883 assessed as minimum modulatory concentration up to 32 uM measured after 16 hrs in presence of MIC/4 geneticin; format: functional; conditions: ATCC 13883, 16 h, read-out: MEC
Enterococcus faecium [24] = assay: Potentiation of tetracycline-induced antibacterial activity against Enterococcus faecium ATCC 700221 assessed as minimum modulatory concentration up to 32 uM measured after 16 hrs in presence of MIC/4 tetracycline; format: functional; conditions: ATCC 700221, 16 h, read-out: MEC
Streptococcus pyogenes [25] = assay: Potentiation of tetracycline-induced antibacterial activity against Streptococcus pyogenes ATCC 14289 assessed as minimum modulatory concentration up to 32 uM measured after 16 hrs in presence of MIC/4 tetracycline; format: functional; conditions: ATCC 14289, 16 h, read-out: MEC
Escherichia coli [26] = assay: Potentiation of tetracycline-induced antibacterial activity against Escherichia coli ATCC 43894 assessed as minimum modulatory concentration up to 32 uM measured after 16 hrs in presence of MIC/4 tetracycline; format: functional; conditions: ATCC 43894, 16 h, read-out: MEC
Escherichia coli [27] = assay: Potentiation of geneticin-induced antibacterial activity against Escherichia coli ATCC 43894 assessed as minimum modulatory concentration up to 32 uM measured after 16 hrs in presence of MIC/4 geneticin; format: functional; conditions: ATCC 43894, 16 h, read-out: MEC
Streptococcus pyogenes [28] = assay: Potentiation of geneticin-induced antibacterial activity against Streptococcus pyogenes ATCC 14289 assessed as minimum modulatory concentration up to 32 uM measured after 16 hrs in presence of MIC/4 geneticin; format: functional; conditions: ATCC 14289, 16 h, read-out: MEC
Macrophage cell line [29] = assay: Induction of prostaglandin production in human PBMC-differentiated macrophages after 24 hrs by ELISA; format: cell-based
Streptococcus pyogenes [30] = assay: Potentiation of methicillin-induced antibacterial activity against Streptococcus pyogenes ATCC 14289 assessed as minimum modulatory concentration up to 32 uM measured after 16 hrs in presence of MIC/4 methicillin; format: functional; conditions: ATCC 14289, 16 h, read-out: MEC
Klebsiella pneumoniae [31] = assay: Potentiation of ciprofloxacin-induced antibacterial activity against Klebsiella pneumoniae ATCC 13883 assessed as minimum modulatory concentration up to 32 uM measured after 16 hrs in presence of MIC/4 ciprofloxacin; format: functional; conditions: ATCC 13883, 16 h, read-out: MEC
Pseudomonas aeruginosa [32] = assay: Potentiation of methicillin-induced antibacterial activity against Pseudomonas aeruginosa ATCC BAA-2108 assessed as minimum modulatory concentration up to 32 uM measured after 16 hrs in presence of MIC/4 methicillin; format: functional; conditions: ATCC BAA-2108, 16 h, read-out: MEC
Klebsiella pneumoniae [33] = assay: Potentiation of tetracycline-induced antibacterial activity against Klebsiella pneumoniae ATCC 13883 assessed as minimum modulatory concentration up to 32 uM measured after 16 hrs in presence of MIC/4 tetracycline; format: functional; conditions: ATCC 13883, 16 h, read-out: MEC

Row | SMILES | minimal effective concentration (Enterococcus faecium [1]) [µM] | minimal effective concentration (Escherichia coli [2]) [µM] | minimal effective concentration (Pseudomonas aeruginosa [3]) [µM] | minimal effective concentration (Klebsiella pneumoniae [4]) [µM] | Activity (Escherichia coli [5]) | Activity (Pseudomonas aeruginosa [6]) | minimal effective concentration (Pseudomonas aeruginosa [7]) [µM] | IC50 (Macrophage cell line [8]) [µM] | minimal effective concentration (Staphylococcus aureus [9]) [µM] | Activity (Macrophage cell line [10]) | inhibition (Macrophage cell line [11]) | minimal effective concentration (Staphylococcus aureus [12]) [µM] | minimal effective concentration (Streptococcus pyogenes [13]) [µM] | Activity (Klebsiella pneumoniae [14]) | Activity (Streptococcus pyogenes [15]) | minimal effective concentration (Klebsiella pneumoniae [16]) [µM] | minimal effective concentration (Enterococcus faecium [17]) [µM] | minimal effective concentration (Pseudomonas aeruginosa [18]) [µM] | minimal effective concentration (Pseudomonas aeruginosa [19]) [µM] | minimal effective concentration (Staphylococcus aureus [20]) [µM] | other results
1 | C[n+]1cc(O)c(C(=O)[O-])cc1-c1ccccc1 | > 32 | > 32 | > 32 | > 32 | Non-Toxic | Non-Toxic | > 32 | 91.4 | > 32 | Non-Toxic | inactive | > 32 | > 32 | Non-Toxic | Non-Toxic | > 32 | > 32 | > 32 | > 32 | > 32 | minimal effective concentration (Staphylococcus aureus [21]): > 32 µM; inhibition (Macrophage cell line [22]): inactive; minimal effective concentration (Klebsiella pneumoniae [23]): > 32 µM; minimal effective concentration (Enterococcus faecium [24]): > 32 µM; minimal effective concentration (Streptococcus pyogenes [25]): > 32 µM; minimal effective concentration (Escherichia coli [26]): > 32 µM; minimal effective concentration (Escherichia coli [27]): > 32 µM; minimal effective concentration (Streptococcus pyogenes [28]): > 32 µM; Activity (Macrophage cell line [29]): Non-Toxic; minimal effective concentration (Streptococcus pyogenes [30]): > 32 µM; minimal effective concentration (Klebsiella pneumoniae [31]): > 32 µM; minimal effective concentration (Pseudomonas aeruginosa [32]): > 32 µM; minimal effective concentration (Klebsiella pneumoniae [33]): > 32 µM
2 | O=C(O)c1cc(-c2ccccc2)ncc1O | > 32 | > 32 | > 32 | > 32 | Non-Toxic | Non-Toxic | > 32 | 84.5 | > 32 | Non-Toxic | inactive | 16 | > 32 | Non-Toxic | Non-Toxic | > 32 | > 32 | > 32 | > 32 | > 32 | minimal effective concentration (Staphylococcus aureus [21]): 16 µM; inhibition (Macrophage cell line [22]): inactive; minimal effective concentration (Klebsiella pneumoniae [23]): > 32 µM; minimal effective concentration (Enterococcus faecium [24]): > 32 µM; minimal effective concentration (Streptococcus pyogenes [25]): > 32 µM; minimal effective concentration (Escherichia coli [26]): > 32 µM; minimal effective concentration (Escherichia coli [27]): > 32 µM; minimal effective concentration (Streptococcus pyogenes [28]): 16 µM; Activity (Macrophage cell line [29]): Non-Toxic; minimal effective concentration (Streptococcus pyogenes [30]): 16 µM; minimal effective concentration (Klebsiella pneumoniae [31]): > 32 µM; minimal effective concentration (Pseudomonas aeruginosa [32]): > 32 µM; minimal effective concentration (Klebsiella pneumoniae [33]): > 32 µM
3 | COc1cccc(-c2cc(C(=O)O)c(O)cn2)c1 | 16 | > 32 | > 32 | > 32 | Non-Toxic | Non-Toxic | > 32 | 88.6 | > 32 | Non-Toxic | inactive | > 32 | > 32 | Non-Toxic | Non-Toxic | > 32 | > 32 | > 32 | > 32 | > 32 | minimal effective concentration (Staphylococcus aureus [21]): 16 µM; inhibition (Macrophage cell line [22]): inactive; minimal effective concentration (Klebsiella pneumoniae [23]): > 32 µM; minimal effective concentration (Enterococcus faecium [24]): > 32 µM; minimal effective concentration (Streptococcus pyogenes [25]): > 32 µM; minimal effective concentration (Escherichia coli [26]): > 32 µM; minimal effective concentration (Escherichia coli [27]): > 32 µM; minimal effective concentration (Streptococcus pyogenes [28]): > 32 µM; Activity (Macrophage cell line [29]): Non-Toxic; minimal effective concentration (Streptococcus pyogenes [30]): > 32 µM; minimal effective concentration (Klebsiella pneumoniae [31]): > 32 µM; minimal effective concentration (Pseudomonas aeruginosa [32]): > 32 µM; minimal effective concentration (Klebsiella pneumoniae [33]): > 32 µM
